Measured values from patent US20230181801A1, “MOLECULAR IODINE-INFUSED POLYMERS, ARTICLES, AND PRODUCTS, AND THEIR PREPARATION AND USE” (I2PURE CORP., priority 2021, published 2023).

Experiments:
[1] = Stability of molecular iodine in solvent at room temperature; assay type: physicochemical; details: in ethanol, 15 days at room temperature in the dark
[2] = room temperature; cited from earlier work

SMILES: II [I2, molecular iodine]
- loss of molecular iodine [1]: over 15%
- maximum solubility in water [2]: 332 ppm
